Molecules are shown by their SMILES.

In one assay the test system is genotype A, "Long" strain RSV. In words: RSV-A assay: CPE protection in HEp-2 cells, ATPlite readout. Conditions: HEp-2 cells, RSV-A Long strain, ATPlite readout; read-out: Human RSV-A (“Long” strain) EC50. The assay is classed as cell-based, human respiratory syncytial virus. The procedure, abridged:
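HEp-2 cells (8,000/well) with 2-fold compound dilutions in duplicate, infected with Long-strain RSV at MOI 0.1 and incubated 5 days. Cell ATP measured by ATPlite luminescence to give EC50; uninfected parallel plate gives CC50.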
Background: In ATP-based viability assays light output follows the ATP content of the culture.
As a reminder, the EC50 is the concentration that produces a half-maximal response. In the case of `COC[C@@H]1C[C@H]1c1sc(C(F)(F)F)nc1-c1nnc(N[C@H]2N=C(c3ccccc3)c3ccccc3NC2=O)o1` [Example 394], the EC50 was above 0.8 µM. Take `O=C1Nc2ccccc2C(c2ccccc2)=N[C@@H]1Nc1nnc(-c2ncc(C(F)(F)F)cc2N[C@H]2CC[C@H]2O)o1` [Example 417]: the EC50 is above 0.8 µM. On to `O=C1Nc2ccccc2C(c2ccccc2)=N[C@@H]1Nc1nnc(-c2ncc(C(F)(F)F)cc2N[C@@H]2CC[C@@H]2O)o1` [Example 418], for which the EC50 is above 0.8 µM.

Staying with this assay, now noted: human respiratory syncytial virus, HEp-2, read-out: Human RSV-A (“Long” strain) EC50.
In the case of `COc1ccc(-c2ccc(NC3N=C(c4ccccc4)c4ccccc4NC3=O)nn2)cc1` (stereo not shown) [Example 376], the EC50 was above 0.8 µM. For the compound `O=C1Nc2ccccc2C(c2ccccc2)=NC1Nc1ccc(-c2ccccc2N2CCOCC2)nn1` (stereo not shown) [Example 378], the EC50 is above 0.8 µM. `O=C1Nc2ccccc2C(c2ccccc2F)=NC1Nc1nnc(-c2ccc(F)cc2)o1` (stereo not shown) [Example 379]: the EC50 was above 0.8 µM. Turning to `O=C1Nc2ccccc2C(c2cccc(F)c2)=NC1Nc1nnc(-c2ccc(F)cc2)o1` (stereo not shown) [Example 380], the EC50 was 0.4 to 0.8 µM. For `N#Cc1cccc(C2=NC(Nc3nnc(-c4ccc(F)cc4)o3)C(=O)Nc3ccccc32)c1` (stereo not shown) [Example 381], the EC50 was above 0.8 µM. For `O=C1Nc2ccccc2C(c2ccc(F)cc2)=NC1Nc1nnc(-c2ccc(F)cc2)o1` (stereo not shown) [Example 382], the EC50 was above 0.8 µM. Same read-out and setting: as for `O=C1Nc2ccccc2C(c2ccccc2)=N[C@@H]1Nc1nnc(-c2cc(C(F)(F)F)sc2N2CCOCC2)o1` [Example 383], the figure is below 0.4 µM; as for `O=C1Nc2ccccc2C(c2ccccc2)=N[C@@H]1Nc1nnc(-c2cc(C3CC3)sc2N2CCOCC2)o1` [Example 384], below 0.4 µM; as for `O=C1Nc2ccccc2C(c2ccccc2)=N[C@@H]1Nc1nnc(-c2nc(-c3ccc(F)cn3)sc2N2CCOCC2)o1` [Example 389], below 0.4 µM.

For `O=C1Nc2ccccc2C(c2ccccc2)=N[C@@H]1Nc1nnc(-c2nc(-c3ccc(C(F)(F)F)nc3)sc2N2CCOCC2)o1` [Example 390], the concentration for a half-maximal effect (EC50) is below 0.4 µM. Regarding `COCCCc1sc(C(F)(F)F)nc1-c1nnc(N[C@H]2N=C(c3ccccc3)c3ccccc3NC2=O)o1` [Example 396], the EC50 is above 0.8 µM. Regarding `Cn1cc(-c2nc(-c3nnc(N[C@H]4N=C(c5ccccc5)c5ccccc5NC4=O)o3)c(N3CCOCC3)s2)cn1` [Example 399], the EC50 is below 0.4 µM.

Regarding `O=C1Nc2ccccc2C(c2ccccc2)=NC1Nc1nnc(-c2nc(Br)sc2N2CCOCC2)o1` (stereo not shown) [Example 400], the 50% effective concentration (EC50) is below 0.4 µM. On to `CCn1cc(-c2nnc(N[C@H]3N=C(c4ccccc4)c4ccccc4NC3=O)o2)c(N2CCOCC2)n1` [Example 401], for which the EC50 is below 0.4 µM. With `COCCn1cc(-c2nnc(N[C@H]3N=C(c4ccccc4)c4ccccc4NC3=O)o2)c(N2CCOCC2)n1` [Example 402], the EC50 was below 0.4 µM. `O=C1Nc2ccccc2C(c2ccccc2)=N[C@@H]1Nc1nnc(-c2oc3ncccc3c2N2CCOCC2)o1` [Example 404]: the half-maximal effective concentration (EC50) was below 0.4 µM.

Consider `O=C1Nc2ccccc2C(c2ccccc2)=N[C@@H]1Nc1nnc(-c2nc(C3CCCCC3)sc2N2CCOCC2)o1` [Example 405], for which the concentration giving a half-maximal response (EC50) is below 0.4 µM. Regarding `C#Cc1nc(-c2nnc(N[C@H]3N=C(c4ccccc4)c4ccccc4NC3=O)o2)c(N2CCOCC2)s1` [Example 406], the 50% effective concentration (EC50) is below 0.4 µM. As for `COc1ccc2nccc(-c3nnc(N[C@H]4N=C(c5ccccc5)c5ccccc5NC4=O)o3)c2c1` [Example 408], the EC50 is above 0.8 µM. Take `COCc1ccc2nccc(-c3nnc(N[C@H]4N=C(c5ccccc5)c5ccccc5NC4=O)o3)c2c1` [Example 409]: the EC50 is above 0.8 µM. For `COc1ccn2ncc(-c3nnc(N[C@H]4N=C(c5ccccc5)c5ccccc5NC4=O)o3)c2c1` [Example 410], the EC50 is above 0.8 µM.

As to `COCCc1cccn2ncc(-c3nnc(N[C@H]4N=C(c5ccccc5)c5ccccc5NC4=O)o3)c12` [Example 411], the EC50 is above 0.8 µM. As to `COCC(C)(C)Nc1cc(C(F)(F)F)cnc1-c1nnc(N[C@H]2N=C(c3ccccc3)c3ccccc3NC2=O)o1` [Example 414], the EC50 is above 0.8 µM. Take `COCC1(Nc2cc(C(F)(F)F)cnc2-c2nnc(N[C@H]3N=C(c4ccccc4)c4ccccc4NC3=O)o2)CC1` [Example 415]: the EC50 is above 0.8 µM. In the case of `COC(C)(C)CNc1cc(C(F)(F)F)cnc1-c1nnc(N[C@H]2N=C(c3ccccc3)c3ccccc3NC2=O)o1` [Example 416], the EC50 is above 0.8 µM. For the compound `O=C1Nc2ccccc2C(c2ccccc2)=N[C@@H]1Nc1nnc(-c2ncc(C(F)(F)F)cc2NC[C@@H]2CCCO2)o1` [Example 419], the EC50 is 0.4 to 0.8 µM. For the compound `O=C1Nc2ccccc2C(c2ccccc2)=N[C@@H]1Nc1nnc(-c2ncc(C(F)(F)F)cc2NC[C@H]2CCCO2)o1` [Example 420], the EC50 is below 0.4 µM. Still for that read-out and setting: as for `O=C1Nc2ccccc2C(c2ccccc2)=N[C@@H]1Nc1nnc(-c2ncc(C(F)(F)F)cc2NCc2ccco2)o1` [Example 421], the figure is above 0.8 µM; as for `O=C1Nc2ccccc2C(c2ccccc2)=N[C@@H]1Nc1nnc(-c2ncc(C(F)(F)F)cc2N[C@H]2CCC[C@H]2O)o1` [Example 422], 0.4 to 0.8 µM; as for `O=C1Nc2ccccc2C(c2ccccc2)=N[C@@H]1Nc1nnc(-c2ncc(C(F)(F)F)cc2N[C@@H]2CCC[C@@H]2O)o1` [Example 423], 0.4 to 0.8 µM. As for `CC1(Nc2cc(C(F)(F)F)cnc2-c2nnc(N[C@H]3N=C(c4ccccc4)c4ccccc4NC3=O)o2)CCOC1` (stereo partly shown) [Example 424], the 50% effective concentration (EC50) was above 0.8 µM.

As for `O=C1Nc2ccccc2C(c2ccccc2)=N[C@@H]1Nc1nnc(-c2cn(-c3cccnc3)nc2N2CCOCC2)o1` [Example 425], the EC50 was below 0.4 µM. Consider `COCCn1ccc2cccc(-c3nnc(N[C@H]4N=C(c5ccccc5)c5ccccc5NC4=O)o3)c21` [Example 426], for which the half-maximal effective concentration (EC50) is above 0.8 µM. Take `O=C1Nc2ccccc2C(c2ccccc2)=N[C@@H]1Nc1nnc(-c2nc(-c3ccccc3F)sc2N2CCOCC2)o1` [Example 427]: the EC50 was below 0.4 µM.

For `O=C1Nc2ccccc2C(c2ccccc2)=N[C@@H]1Nc1nnc(-c2nc(-c3ccc(F)cc3)sc2N2CCOCC2)o1` [Example 428], the EC50 is below 0.4 µM.

As to `O=C1Nc2ccccc2C(c2ccccc2)=N[C@@H]1Nc1nnc(-c2cn(C3CCC3)nc2N2CCOCC2)o1` [Example 430], the EC50 was below 0.4 µM. As to `O=C1Nc2ccccc2C(c2ccccc2)=N[C@@H]1Nc1nnc(-c2cn(-c3ccccn3)nc2N2CCOCC2)o1` [Example 431], the EC50 is below 0.4 µM. `Cc1cc(-c2nnc(N[C@H]3N=C(c4ccccc4)c4ccccc4NC3=O)o2)n(C2CCOCC2)n1` [Example 432]: the EC50 is above 0.8 µM. Same read-out and setting: as for `O=C1Nc2ccccc2C(c2ccccc2)=N[C@@H]1Nc1nnc(-c2nc3ccccc3nc2N2CCOCC2)o1` [Example 433], the figure is below 0.4 µM; as for `O=C1Nc2ccccc2C(c2ccccc2)=N[C@@H]1Nc1nnc(-c2cc3ccccc3nc2N2CCOCC2)o1` [Example 434], below 0.4 µM; as for `N#Cc1ccc2nccc(-c3nnc(N[C@H]4N=C(c5ccccc5)c5ccccc5NC4=O)o3)c2c1` [Example 435], above 0.8 µM. Still for that read-out and setting: the result for `CO[C@@H]1COC[C@H]1Nc1cc(C(F)(F)F)cnc1-c1nnc(N[C@H]2N=C(c3ccccc3)c3ccccc3NC2=O)o1` [Example 436] reads below 0.4 µM; that for `CC(C)(O)c1nc(-c2nnc(N[C@H]3N=C(c4ccccc4)c4ccccc4NC3=O)o2)c(N2CCOCC2)s1` [Example 437], below 0.4 µM.

The values are drawn from patent publication US12268694B2, “Combination pharmaceutical agents as RSV inhibitors” (Enanta Pharmaceuticals, Inc., priority 2017, dated 2025).
